Reference: US20250115597A1, “TYK2 INHIBITORS AND COMPOSITIONS AND METHODS THEREOF” (LYNK PHARMACEUTICALS CO. LTD., priority 2021, published 2025)
Like-named read-outs stand apart in the source and are kept apart here.

Legend:
[1] = target: T1, Ba/F3-FL-TYK2-P760L cells (Homo sapiens, UniProt P29597, P760L, cells depend on it); experiment: Anti-proliferative assay, Ba/F3-FL-TYK2-P760L cells (Cell-Titer Glo); type: cell-based; details: 72 h, read-out: BaF3-FL-T2P760L IC50
T1 construct: BaF3-FL-T2P760L (nM)
T1 sequence (P29597 whole entry P760L): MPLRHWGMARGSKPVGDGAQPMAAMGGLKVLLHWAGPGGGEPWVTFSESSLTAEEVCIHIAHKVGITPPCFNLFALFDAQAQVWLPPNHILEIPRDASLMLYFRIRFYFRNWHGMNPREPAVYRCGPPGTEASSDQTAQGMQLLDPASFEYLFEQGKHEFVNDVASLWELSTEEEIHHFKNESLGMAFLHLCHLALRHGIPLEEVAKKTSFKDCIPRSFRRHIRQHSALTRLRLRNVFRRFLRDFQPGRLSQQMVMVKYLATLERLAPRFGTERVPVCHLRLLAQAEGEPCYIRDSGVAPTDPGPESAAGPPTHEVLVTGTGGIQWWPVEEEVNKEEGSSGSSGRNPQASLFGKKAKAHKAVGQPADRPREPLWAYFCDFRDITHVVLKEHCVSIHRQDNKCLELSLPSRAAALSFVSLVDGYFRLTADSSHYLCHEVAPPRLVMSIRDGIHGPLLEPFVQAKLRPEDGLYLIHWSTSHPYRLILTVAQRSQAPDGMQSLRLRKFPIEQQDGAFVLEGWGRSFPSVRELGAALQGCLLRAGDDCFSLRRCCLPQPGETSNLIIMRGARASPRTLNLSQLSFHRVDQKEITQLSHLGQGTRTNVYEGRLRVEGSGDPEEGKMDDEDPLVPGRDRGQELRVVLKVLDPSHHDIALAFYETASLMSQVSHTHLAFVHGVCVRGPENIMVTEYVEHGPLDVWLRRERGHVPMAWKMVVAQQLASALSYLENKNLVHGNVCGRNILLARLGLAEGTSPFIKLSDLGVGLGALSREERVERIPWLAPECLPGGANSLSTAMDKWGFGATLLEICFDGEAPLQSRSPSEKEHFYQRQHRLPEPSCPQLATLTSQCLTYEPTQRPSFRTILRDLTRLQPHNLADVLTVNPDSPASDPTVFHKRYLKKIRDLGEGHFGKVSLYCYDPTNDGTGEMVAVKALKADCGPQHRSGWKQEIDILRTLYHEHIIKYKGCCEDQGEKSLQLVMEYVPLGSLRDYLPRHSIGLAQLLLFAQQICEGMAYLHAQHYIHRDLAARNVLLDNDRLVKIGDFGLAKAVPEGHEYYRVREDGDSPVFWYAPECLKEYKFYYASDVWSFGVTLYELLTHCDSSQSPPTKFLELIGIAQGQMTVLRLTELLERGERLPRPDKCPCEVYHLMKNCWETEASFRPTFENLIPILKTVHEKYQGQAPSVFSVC
In short: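 Compound exposure ran 72 h at 37 °C in 5% CO2 across nine 3-fold concentrations from a 20 μM top dose, added 24 h after seeding 2000 cells/well.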

[2] = Microsomal metabolic stability assay; type: in vitro ADME; details: pH 7.4, 0.5 mg/mL protein, 1 μM compound
Experimental: Microsomal Metabolic Stability Assay
Microsomes were pre-incubated with test compound or control compounds for 5 min at 37° C. in 100 mM potassium phosphate buffer, pH 7.4, 1.0 mM EDTA. The reaction was initiated by addition of 15 μL of the NADPH regenerating system to 30 μL of each incubation mixture per time point. The final incubation condition was composed of 0.5 mg/mL microsomal protein, 1 μM test article/positive control, 2 mM NADPH. The 0-minute samples were prepared by addition of a 30 μL aliquot of each incubation mixture to 135 μL quench reagent to precipitate proteins. And then a 15 μL aliquot of the NADPH regenerating system was added. At 5, 15, 30 and 45 minutes, the reaction will be stopped by the addition of cold acetonitrile solution containing internal standard. The samples taken at all time points were centrifuged at 5000×g for 15 minutes. 50 μL of supernatant are taken into 96-well assay plates pre-added with 50 μL ultrapure water, and then analyzed by LC/MS/MS.
Concentrations of test articles, control compounds in the samples were determined by using LC/MS/MS method. Plotting of the chromatograms and peak area integrations are carried out by Analyst (AB Sciex).
n the determination of the in vitro elimination constant (ke) of the control compounds, the analyte/internal standard peak area ratios will be converted to percentage remaining (% Remaining) with the following equation: […]
The slope was measured by the natural logarithm of the percentage of the residual compound and time, T1/2 was calculated according to the following formula.

[3] = dog liver microsomes, read-out: Dog LM Clint
[4] = dog liver microsomes, read-out: Dog LM T½
[5] = human liver microsomes, read-out: Human LM Clint
[6] = human liver microsomes, read-out: Human LM T½
[7] = rat liver microsomes, read-out: Rat LM Clint
[8] = rat liver microsomes, read-out: Rat LM T½

Structure (SMILES) | GI50 [1] [µM] | microsomal CLint at 1 μM [2, 3] [µL/min/mg] | half-life at 1 μM [2, 4] [h] | microsomal CLint at 1 μM [2, 5] [µL/min/mg] | half-life at 1 μM [2, 6] [h] | microsomal CLint at 1 μM [2, 7] [µL/min/mg] | half-life at 1 μM [2, 8] [h]
[2H]C([2H])([2H])NC(=O)c1cnc(NC(=O)C2CC2)cc1Nc1cnn2ccn(CC(F)(F)F)c(=O)c12 [Example 45, 6-(Cyclopropanecarboxamido)-N-(methyl-d3)-4-((4-oxo-5-(2,2,2-trifluoroethyl)-4,5-dihydropyrazolo[1,5-a]pyrazin-3-yl)amino)nicotinamide] | 0.16 | 8.76 | 2.64 | 51.9 | 0.445 | 110 | 0.21
COC(=O)c1cnc(NC(=O)C2CC2)cc1Nc1ncn2ccn(CC(F)(F)F)c(=O)c12 [Example 47, Methyl 6-(cyclopropanecarboxamido)-4-((8-oxo-7-(2,2,2-trifluoroethyl)-7,8-dihydroimidazo[1,5-a]pyrazin-1-yl)amino)nicotinate] | 0.18 | 25 | 0.923 | 45.2 | 0.512 | 80 | 0.288
[2H]C([2H])([2H])NC(=O)c1cnc(NC(=O)C2CC2)cc1Nc1ccc2nnc(CC)n2c1OC [Example 58, 6-(Cyclopropanecarboxamido)-4-((3-ethyl-5-methoxy-[1,2,4]triazolo[4,3-a]pyridin-6-yl)amino)-N-(methyl-d3)nicotinamide] | > 5 | < 11.5 | > 2 | < 11.5 | > 2 | < 11.5 | > 2
[2H]C([2H])([2H])NC(=O)c1nnc2cc1Nc1cc(cc(-c3ncn(C)n3)c1OC)CN(C)Cc1nc(ccc1F)N2 [Example 72, 18-Fluoro-10-methoxy-N-(methyl-d3)-15-methyl-11-(1-methyl-1H-1,2,4-triazol-3-yl)-2,4,5,8,15,21-hexaazatetracyclo[15.3.1.1^{3,7}.1^{9,13}]tricosa-1(20),3,5,7(23),9(22),10,12,17(21),18-nonaene-6-carboxamide] | 0.249 | 16.2 | 1.43 | 16.9 | 1.37 | 87 | 0.266
[2H]C([2H])([2H])NC(=O)c1nnc2cc1Nc1cc(cc(-c3ccn(C)n3)c1OC)COCc1nc(ccc1F)N2 [Example 74, 18-Fluoro-10-methoxy-N-(methyl-d3)-11-(1-methyl-1H-pyrazol-3-yl)-15-oxa-2,4,5,8,21-pentaazatetracyclo[15.3.1.1^{3,7}.1^{9,13}]tricosa-1(20),3,5,7(23),9(22),10,12,17(21),18-nonaene-6-carboxamide] | 0.0935 | 108 | 0.215 | 17.5 | 1.32 | 161 | 0.143
[2H]C([2H])([2H])NC(=O)c1nnc2cc1Nc1cc(cc(-n3cnc(C)n3)c1OC)COCc1nc(ccc1F)N2 [Example 75, 18-Fluoro-10-methoxy-N-(methyl-d3)-11-(3-methyl-1H-1,2,4-triazol-1-yl)-15-oxa-2,4,5,8,21-pentaazatetracyclo[15.3.1.1^{3,7}.1^{9,13}]tricosa-1(20),3,5,7(23),9(22),10,12,17(21),18-nonaene-6-carboxamide] | 0.108 | 37.7 | 0.613 | 21.8 | 1.06 | 22.6 | 1.02

Now those with a lower GI50 [1], led by results:

GI50 [1] [µM] | microsomal CLint at 1 μM [2, 3] [µL/min/mg] | half-life at 1 μM [2, 4] [h] | microsomal CLint at 1 μM [2, 5] [µL/min/mg] | half-life at 1 μM [2, 6] [h] | microsomal CLint at 1 μM [2, 7] [µL/min/mg] | half-life at 1 μM [2, 8] [h] | Structure (SMILES)
0.0893 | 8.46 | 2.73 | 27.8 | 0.832 | 126 | 0.184 | CNC(=O)c1cnc(NC(=O)C2CC2)cc1Nc1csc2ccn(C)c(=O)c12 [Example 16, 6-(Cyclopropanecarboxamido)-N-methyl-4-((5-methyl-4-oxo-4,5-dihydrothieno[3,2-c]pyridin-3-yl)amino)nicotinamide]
0.0388 | 117 | 0.198 | 11.9 | 1.95 | 43.9 | 0.526 | [2H]C([2H])([2H])NC(=O)c1cnc(Nc2ccc(F)cn2)cc1Nc1ccc2cnn(CC)c2c1OC [Example 42, 4-((1-Ethyl-7-methoxy-1H-indazol-6-yl)amino)-6-((5-fluoropyridin-2-yl)amino)-N-(methyl-d3)nicotinamide]
0.0852 | 30.8 | 0.751 | 9.58 | 2.41 | 48.5 | 0.477 | [2H]C([2H])([2H])NC(=O)c1cnc(Nc2ccn(C)n2)cc1Nc1ccc2cnn(CC)c2c1OC [Example 43, 4-((1-Ethyl-7-methoxy-1H-indazol-6-yl)amino)-N-(methyl-d3)-6-((1-methyl-1H-pyrazol-3-yl)amino)nicotinamide]
0.0421 | 23.1 | 0.998 | 6.48 | 3.56 | 6.84 | 3.38 | [2H]C([2H])([2H])NC(=O)c1cnc2cc1Nc1cc(cc(-c3ncn(C)n3)c1OC)COCc1nc(ccc1F)N2 [Example 66, 18-Fluoro-10-methoxy-N-(methyl-d3)-11-(1-methyl-1H-1,2,4-triazol-3-yl)-15-oxa-2,4,8,21-tetraazatetracyclo[15.3.1.1^{3,7}.1^{9,13}]tricosa-1(20),3,5,7(23),9(22),10,12,17(21),18-nonaene-6-carboxamide]
0.0799 | 1.92 | 12 | – | > 2 | 3.32 | 6.97 | [2H]C([2H])([2H])NC(=O)c1cnc2cc1Nc1cc(cc(-c3ncn(C)n3)c1OC)COCc1cc(C(F)(F)F)cc(n1)N2 [Example 69, 10-Methoxy-N-(methyl-d3)-11-(1-methyl-1H-1,2,4-triazol-3-yl)-19-(trifluoromethyl)-15-oxa-2,4,8,21-tetraazatetracyclo[15.3.1.1^{3,7}.1^{9,13}]tricosa-1(21),3,5,7(23),9(22),10,12,17,19-nonaene-6-carboxamide]
0.03 | 30.4 | 0.759 | 12.7 | 1.83 | 7.43 | 3.11 | [2H]C([2H])([2H])NC(=O)c1cnc2cc1Nc1cc(cc(-c3ncn(C)n3)c1OC)COCc1nc(ccc1C)N2 [Example 70, 10-Methoxy-N-(methyl-d3)-18-methyl-11-(1-methyl-1H-1,2,4-triazol-3-yl)-15-oxa-2,4,8,21-tetraazatetracyclo[15.3.1.1^{3,7}.1^{9,13}]tricosa-1(20),3,5,7(23),9(22),10,12,17(21),18-nonaene-6-carboxamide]
